This is an account of results in patent publication US20070117857A1, “Substituted 3-amido-tetrahydro-indazolyl cannabinoid modulators” (priority 2005, published 2007).

For one test, the target named is T1, human CB2 receptor (Homo sapiens, UniProt P34972).
T1 construct: expressed in transfected cells; host or cells: SK-N-MC cells (semi-purified membrane pellet)
Put plainly: Binding assay for CB2 agonists or inverse agonists ([3H]-CP-55,940 displacement). The following applies: test concentration of 0.2 μM; membranes of SK-N-MC cells expressing human CB2. On the procedure:
(§1) The human CB1 and CB2 receptors were stably expressed in SK-N-MC cells transfected with pcDNA3 CB1 (human) or pcDNA3 CB-2 (human). The cells were grown in T-180 cell culture flasks under standard cell culture conditions at 37° C. in a 5% CO2 atmosphere. The cells were harvested by trysinization and homogenized in a homogenization buffer (10 mM Tris, 0.2 mM MgCl2, 5 mM KCl, with protease inhibitors aprotinin, leupeptin, pepstatin A and bacitracin) and centrifuged (2000 g). The supernatant was then centrifuged in 2M sucrose (31,300 g) to produce a semi-purified membrane pellet. The pellet was resuspended in homogenization and stored at −80° C.
(§2) On the day of the assay, the pellet was thawed on ice and diluted in assay buffer (50 mM Tris-HCl, 5 mM MgCl2, 2.5 mM EDTA, 0.5 mg/mL fatty acid free bovine serum albumin, pH 7.5). […] Non-specific binding was measured in wells containing WIN 55,212 (10 uM). […] The Unifilter plate was dried, a scintillation cocktail was added to each well and the counts representing binding were quantitated in a TopCount scintillation counter.
(§3) For compounds tested, an IC50 binding value was obtained from percent inhibition studies in which various test concentrations were used. The binding value was calculated by linear regression. […]

The target of test [1] is T2, human CB1 receptor (Homo sapiens, UniProt P21554). Put plainly: Binding assay for CB1 agonists or inverse agonists ([3H]-CP-55,940 displacement). Further details: expressed in transfected cells; host or cells: SK-N-MC cells (semi-purified membrane pellet). The following applies: test concentration of 0.2 μM; membranes of SK-N-MC cells expressing human CB1. The method, then:
as §1, §2, §3

For test [2], the target named is T2, human CB1 receptor. Put plainly: Functional cell-based assay, CB1 receptor mediated change in CRE β-gal expression. Also on record: expressed in transfected cells; host or cells: SK-N-MC cells. Particulars: SK-N-MC cells with CRE β-gal and human CB1; forskolin treated; β-galactosidase activity; read-out: EC50 value for functional activity as a CB1 receptor functional inverse agonist. From the text:
The CB1 and CB2.receptors are G-protein coupled receptors (GPCR) that influence cell function via the Gi-protein. These receptors modulate the activity of intracellular adenylate cyclase, which in turn produces the intracellular signal messenger cyclic-AMP (cAMP).
At baseline, or during non-ligand bound conditions, these receptors are constitutively active and tonically suppress adenylate cyclase activity. The binding of an agonist causes further receptor activation and produces additional suppression of adenylate cyclase activity. The binding of an inverse agonist inhibits the constitutive activity of the receptors and results in an increase in adenylate cyclase activity.
Test compounds were evaluated in SK-N-MC cells which, using standard transfection procedures, were stably transfected with human cDNA for pcDNA3-CRE β-gal and pcDNA3 CB1 receptor (human) or pcDNA3 CB2 receptor (human). By expressing CRE β-gal, the cells produced β-galactosidase in response to CRE promoter activation by cAMP. Cells expressing CRE β-gal and either the human CB1 or CB2 receptor will produce less β-galactosidase when treated with a CB1/CB2 agonist and will produce more β-galactosidase when treated with a CB1/CB2 inverse agonist.
The cells were grown in 96-well plates under standard cell culture conditions at 37° C. in a 5% CO2 atmosphere. After 3 days, the media was removed and a test compound in media (wherein the media was supplemented with 2 mM L-glutamine, […] sodium pyruvate, 0.1% low fatty acid FBS (fetal bovine serum) and antibiotics) was added to the cell. The plates were incubated for 30 minutes at 37° C. and the plate cells were then treated with forskolin over a 4-6 hour period, then washed and lysed. The β-galactosidase activity was quantitated using commercially available kit reagents (Promega Corp. Madison, Wis.) and a Vmax Plate Reader (Molecular Devices, Inc).
For cells expressing CRE β-gal and the CB1 receptor, CB1 agonists reduced β-galactosidase activity in a dose-dependent manner and CB1 inverse agonists increased β-galactosidase activity in a dose-dependent manner.
The change in β-galactosidase activity was determined by setting a vehicle treated cell's activity value at 100% and expressing the β-galactosidase activity measured in a corresponding compound treated cell as a percent of the vehicle treated cell activity.
The EC50 value for functional activity for compounds tested was calculated by linear regression and was obtained from studies in which varying compound concentrations were used.

T2 sequence (P21554 whole entry): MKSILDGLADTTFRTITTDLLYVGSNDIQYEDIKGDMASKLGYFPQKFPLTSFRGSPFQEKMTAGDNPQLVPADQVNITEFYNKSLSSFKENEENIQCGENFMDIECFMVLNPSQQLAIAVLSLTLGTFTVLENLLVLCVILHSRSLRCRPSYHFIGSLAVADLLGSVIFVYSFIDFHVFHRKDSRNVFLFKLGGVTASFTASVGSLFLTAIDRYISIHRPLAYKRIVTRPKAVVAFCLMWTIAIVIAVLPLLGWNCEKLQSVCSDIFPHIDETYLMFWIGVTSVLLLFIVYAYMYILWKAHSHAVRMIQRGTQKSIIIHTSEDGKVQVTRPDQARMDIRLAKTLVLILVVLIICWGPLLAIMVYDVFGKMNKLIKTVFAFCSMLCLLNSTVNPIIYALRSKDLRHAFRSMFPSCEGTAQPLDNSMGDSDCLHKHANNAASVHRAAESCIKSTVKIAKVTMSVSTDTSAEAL
T1 sequence (P34972 whole entry): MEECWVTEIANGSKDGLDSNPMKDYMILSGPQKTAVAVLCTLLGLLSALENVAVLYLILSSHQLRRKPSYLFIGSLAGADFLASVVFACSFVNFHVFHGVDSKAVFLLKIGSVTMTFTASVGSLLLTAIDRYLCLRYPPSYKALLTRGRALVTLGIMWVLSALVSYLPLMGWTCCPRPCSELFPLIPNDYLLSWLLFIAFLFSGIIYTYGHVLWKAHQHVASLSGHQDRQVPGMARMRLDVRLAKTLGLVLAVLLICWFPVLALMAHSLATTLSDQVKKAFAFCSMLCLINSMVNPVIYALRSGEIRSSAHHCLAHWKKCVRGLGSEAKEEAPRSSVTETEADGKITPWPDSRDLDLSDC

`O=C(NN1CCCCC1=O)c1nn(-c2ccc(Cl)cc2Cl)c2c1CCC/C2=C\c1ccc(F)cc1` [Compound 3, (7E)-1-(2,4-dichloro-phenyl)-7-(4-fluoro-benzylidene)-4,5,6,7-tetrahydro-1H-indazole-3-carboxylic acid(2-oxo-piperidin-1-yl)-amide] displayed a CB2 binding at human CB2 receptor of 28%. On human CB1 receptor [1], this compound came in with a CB1 binding of 19%.
Broadly, the EC50 is the midpoint of the concentration-response curve. For the compound `O=C(NN1C=CCCC1)c1nn(-c2ccc(Cl)cc2Cl)c2c1CCC/C2=C\c1ccc(F)cc1` [Compound 5, (7E)-1-(2,4-dichloro-phenyl)-7-(4-fluoro-benzylidene)-4,5,6,7-tetrahydro-1H-indazole-3-carboxylic acid(3,4-dihydro-2H-pyridin-1-yl)-amide], at human CB1 receptor [2], the EC50 turned out to be 1.4 nM.
Consider `O=C(NN1CCC(O)CC1)c1nn(-c2ccc(Cl)cc2Cl)c2c1CCC/C2=C\c1ccc(F)cc1` [Compound 1, (6E)-1-(2,4-dichloro-phenyl)-7-(4-fluoro-benzylidene)-4,5,6,7-tetrahydro-1H-indazole-3-carboxylic acid (4-hydroxy-piperidin-1-yl)-amide], for which the EC50 at human CB1 receptor [2] came out at 40 nM.
Same read-out and setting: then `C[N+]1(NC(=O)c2nn(-c3ccc(Cl)cc3Cl)c3c2CCC/C3=C\c2ccc(F)cc2)CCCCC1` [Compound 4, (7E)-1-{[1-(2,4-dichloro-phenyl)-7-(4-fluoro-benzylidene)-4,5,6,7-tetrahydro-1H-indazole-3-carbonyl]-amino}-1-methyl-piperidinium], with 7.2 nM; and `COC1CCN(NC(=O)c2nn(-c3ccc(Cl)cc3Cl)c3c2CCC/C3=C\c2ccc(F)cc2)CC1` [Compound 2, (7E)-1-(2,4-dichloro-phenyl)-7-(4-fluoro-benzylidene)-4,5,6,7-tetrahydro-1H-indazole-3-carboxylic acid(4-methoxy-piperidin-1-yl)-amide], with 4 nM.
